Where a SMILES comes first, the peptide text is derived from it.
Key:
[1] = target: dsDNA (pcDNA3.1 (+) plasmid); assay: DNA binding assay (SYBR Gold fluorescence reduction); settings: reduction of fluorescence of SYBR Gold bound to pcDNA3.1 (+) plasmid (100 ng); non-linear regression; n = 8
Procedure: DNA-binding of the peptides was analyzed using an assay based on the reduction of the fluorescence of DNA-bound SYBR^TM Gold dye in the presence of peptide. […] The selectivity index (SI), that is, the ratio between CC50 and IC50, was calculated for all peptides tested in HEK293 cells, except for C22del and C22del_cyc, for which the CC50 could not be calculated from the results of the cell viability assay (Table 1, Supplementary Figure S1).
DNA binding was detected using an assay based on reduction of fluorescence emitted by SYBR^TM Gold (ThermoFisher, Darmstadt, Germany) bound to dsDNA in the presence of peptides using the pcDNA3.1 (+) plasmid (100 ng), as described previously.

DiO-labeled MCMV = assay: Entry of DiO-labeled MCMV (microscopy); assay type: cell-based, mouse cytomegalovirus; settings: 10 µM peptide, NIH/3T3 cells, 120 min post-infection, MOI approximately 5
Procedure: DiO labeling was performed by incubation of MCMV (2 × 10^7 pfu) with 5 µL of Vybrant™ DiO Cell-Labeling Solution in 300 µL cell culture medium supplemented with 10% FCS for 20 min at 37 °C. After that, the virus was precipitated overnight at 4 °C by addition of 600 µL autoclaved solution of polyethylene glycol/sodium chloride (30% (w/v) PEG-8000 (Sigma Aldrich, Schnelldorf, Germany), 10.5% NaCl (w/v) in PBS, followed by centrifugation on the next day for one hour at 1600× g at 4 °C. Supernatants were discarded, and the precipitated virus was resuspended in 500 µL cell culture medium supplemented with 10% FCS, aliquoted and stored at −80 °C.
NIH/3T3 cells were seeded at a density of 2 × 10^4 cells/250 µL per well in ibiTreat 8-well chambers (ibidi, Germany) and allowed to attach overnight at 37 °C. On the next day, cells were treated with peptides and infected with DiO-labeled MCMV corresponding to an MOI of approximately 5 with the aid of centrifugal enhancement, twice at 800× g for 15 min. After 2 h of incubation, cells were washed twice with PBS and fixed with 5% formaldehyde for 1 h at room temperature. Then, cells were stained with DAPI for 15 min, as described above. […]

[2] = system: MCMV strain delm157-luc rep; assay type: cell-based, mouse cytomegalovirus; settings: luciferase reporter gene expression in NIH/3T3 cells infected with replication-competent MCMV, MOI 0.5, 72 h post-infection; 1:3 dilution series; non-linear regression; n = 9
Procedure: NIH/3T3 cells were seeded at a density of 2 × 10^4 cells/100 µL per well in a 96-well plate (Sarstedt, Germany) and allowed to attach overnight. On the next day, cells were treated with a 1:3 dilutions series of peptides and, without further pre-incubation, subsequently infected with the MCMV strain delm157-luc rep. The MCMV stock was prepared and quantified as previously described. The virus (MOI 0.5 for luc assays; for other assays, see the specific descriptions) was adsorbed to cells with the aid of centrifugal enhancement twice at 800× g for 15 min at room temperature and incubated at 37 °C for the indicated times. For the luciferase assays, the infected cells were lysed 72 h post-infection using 20 µL Cell Culture Lysis Reagent (Promega, Mannheim, Germany). From the lysates, 10 µL was transferred to white 96-well plates, and luciferase was recorded using a Luciferase Assay System and a GloMax®-Multi Detection System (Promega, Mannheim, Germany).

[3] = system: MCMV pM123/IE1 protein expression; assay: pM123/IE1 immunofluorescence in MCMV-infected NIH/3T3 cells; assay type: cell-based, mouse cytomegalovirus; settings: MCMV MOI 1, 6 h post-infection
Procedure: NIH/3T3 cells were seeded at a density of 2 × 10^4 cells/250 µL per well in ibiTreat 8-well chambers (ibidi, Gräfelfing, Germany) and allowed to attach overnight at 37 °C. On the next day, cells were treated with peptides and infected with MCMV at an MOI of 1 with the aid of centrifugal enhancement, twice at 800× g for 15 min. After 6 h of incubation at 37 °C, the supernatants were removed and cells were fixed with 5% formaldehyde for 1 h at room temperature, followed by permeabilization with 0.5% Triton X-100 (Sigma Aldrich, Schnelldorf, Germany) in PBS for 10 min at room temperature. Cells were then incubated with 3% bovine serum albumin (BSA; Sigma Aldrich, Schnelldorf, Germany) in PBS for one hour. After that, anti-m123/IE-1 antibody (clone IE1.01; Center for Proteomics, Rijeka, Croatia) was added at a 1:400 dilution in PBS + 1% BSA and slides were incubated overnight at 4 °C. On the next day, wells were washed twice with PBS. […]

[4] = system: human red blood cells (RBCs); assay: Hemolysis assay with red blood cells; assay type: cell-based; settings: 1 h at 37 °C
Procedure: Blood from healthy volunteers was collected by venipuncture (Greiner Bio-One, Kremsmünster, Austria) into K2E K2EDTA VacuetteTM tubes (Greiner Bio-One, Kremsmünster, Austria) with 4 mL blood. The assay for hemolysis was adapted from Sæbo et al.. Blood was centrifuged at 1000× g for 10 min, and plasma was kept for further use. Red blood cells were then resuspended in 10 mL PBS and centrifuged again at 1000× g for a total of three times. Cells were then counted using a hemocytometer and seeded at a cell number of 1 × 10^7 cells/100 µL PBS per well in conical 96-well plates (ThermoFisher, Darmstadt, Germany). Next, 1:2 peptide dilutions starting from 40 µM either in PBS or 10% donor serum were prepared, and 100 µL was added to 100 µL of RBC. Plates were then incubated for one hour at 37 °C. As the positive control, three wells with 100 µL RBCs were treated with 100 µL PBS + 0.5% Triton X-100. After incubation, plates were centrifuged at 1000× g for 5 min and supernatants were transferred to flat 96-well plates. Optical density (OD) was determined at 450 nm using a GloMax®-Multi Detection System (Promega, Mannheim, Germany). Images from RBCs from light microscopy and centrifuged plates were taken using an iPhone 12 mini.

With `CC(C)C[C@H](NC(=O)[C@H](CS)NC(=O)[C@H](CCC(N)=O)NC(=O)[C@@H]1CCCN1C(=O)[C@@H]1CCCN1C(=O)[C@H](CCCNC(=N)N)NC(=O)[C@H](CCCNC(=N)N)NC(=O)[C@H](CCCNC(=N)N)NC(=O)[C@H](CCC(N)=O)NC(=O)[C@H](CCCNC(=N)N)NC(=O)[C@H](CCCNC(=N)N)NC(=O)[C@H](CCCCN)NC(=O)[C@H](CCCCN)NC(=O)[C@H](CCCNC(=N)N)NC(=O)CN)C(=O)N[C@@H](C)C(=O)N[C@@H](Cc1ccccc1)C(=O)N[C@@H](Cc1ccc(O)cc1)C(=O)N[C@@H](C)C(=O)N[C@@H](CS)C(=O)N[C@@H](Cc1ccccc1)C(=O)N[C@@H](CS)C(=O)O` [TAT-I24] (H-GRKKRRQRRRPPQCLAFYACFC-OH) the IC50 [1] was 1010 nM, the “organization of fluorescent signal of DiO-labeled MCMV in cells” value (DiO-labeled MCMV) was “less perinuclear organization and was more dispersed in the whole cytoplasm” and the IC50 [2] was 910 nM. For the same compound, the “number of pM123/IE1-positive cells” value ([3]; 1 µM peptide) was “clearly reduced”, the “number of pM123/IE1-positive cells” value ([3]; 10 µM peptide) was “clearly reduced” and the “hemolysis of human RBCs” value ([4]; peptide dilutions in PBS or PBS + 10% donor serum, concentrations < 20 µM (1:2 dilutions), OD 450 nm of supernatants, n = 6) was “neither induce hemolysis”. For the same compound, the “swelling of RBCs (pellet size after centrifugation)” value ([4]; peptide dilutions prepared in PBS, up to 20 µM) was “Swelling of red blood cells”.

Source: publication PMC11477294, “In Vitro Profiling of the Antiviral Peptide TAT-I24” (International Journal of Molecular Sciences, 2024)
